{"source": "patent EP4635500A1", "about": "“THERAPEUTIC AGENT FOR BACTERIAL INFECTION” (Sumitomo Pharma Co., Ltd., priority 2022, dated 2024)", "key": {"[1]": {"tested_on": "A. baumannii", "test": "MIC, broth microdilution, CDC/FDA Antibiotic Resistance Isolate Bank (Example 7, Tables 9, 13, 14)", "format": "cell-based, Acinetobacter baumannii", "conditions": "for MIC: read-out: MIC"}, "[2]": {"tested_on": "Enterobacterales", "test": "MIC, broth microdilution, CDC/FDA Antibiotic Resistance Isolate Bank (Example 7, Tables 8, 11, 12)", "format": "cell-based", "conditions": "read-out: MIC"}, "[3]": {"conditions": "MIC distribution, metallo-β-lactamase-producing A. baumannii, inhibitor µg/mL in parentheses"}}, "note": "Like-named read-outs stand apart in the source and are kept apart here."}
{"smiles": "C[C@H]1COc2c(N3CCN(C)CC3)c(F)cc3c(=O)c(C(=O)O)cn1c23", "note": "[Levofloxacin, levofloxacin]", "values": [{"measurement": "MIC", "setting": "[1]; Acinetobacter baumannii, KUB No. 5719, AR Bank #286", "result": 8, "unit": "µg/mL"}, {"measurement": "MIC", "setting": "[1]; Acinetobacter baumannii, KUB No. 5720, AR Bank #287", "result": 16, "unit": "µg/mL"}, {"measurement": "MIC", "setting": "[1]; Acinetobacter baumannii, KUB No. 5721, AR Bank #288", "result": "> 64", "unit": "µg/mL"}, {"measurement": "MIC", "setting": "[1]; Acinetobacter baumannii, KUB No. 5722, AR Bank #259", "result": 16, "unit": "µg/mL"}, {"measurement": "MIC", "setting": "[1]; Acinetobacter baumannii, KUB No. 5723, AR Bank #290", "result": 8, "unit": "µg/mL"}, {"measurement": "MIC", "setting": "[1]; Acinetobacter baumannii, KUB No. 5724, AR Bank #291", "result": 8, "unit": "µg/mL"}, {"measurement": "MIC", "setting": "[1]; Acinetobacter baumannii, KUB No. 5725, AR Bank #292", "result": 4, "unit": "µg/mL"}, {"measurement": "MIC", "setting": "[1]; Acinetobacter baumannii, KUB No. 5726, AR Bank #293", "result": 4, "unit": "µg/mL"}, {"measurement": "MIC", "setting": "[1]; Acinetobacter baumannii, KUB No. 5727, AR Bank #294", "result": 32, "unit": "µg/mL"}, {"measurement": "MIC", "setting": "[1]; Acinetobacter baumannii, KUB No. 5728, AR Bank #295", "result": 16, "unit": "µg/mL"}, {"measurement": "MIC", "setting": "[1]; Acinetobacter baumannii, KUB No. 5729, AR Bank #296", "result": 32, "unit": "µg/mL"}, {"measurement": "MIC", "setting": "[1]; Acinetobacter baumannii, KUB No. 5730, AR Bank #297", "result": 32, "unit": "µg/mL"}, {"measurement": "MIC", "setting": "[1]; Acinetobacter baumannii, KUB No. 5731, AR Bank #298", "result": 8, "unit": "µg/mL"}, {"measurement": "MIC", "setting": "[1]; Acinetobacter baumannii, KUB No. 5732, AR Bank #299", "result": 64, "unit": "µg/mL"}, {"measurement": "MIC", "setting": "[1]; Acinetobacter baumannii, KUB No. 5733, AR Bank #300", "result": 64, "unit": "µg/mL"}, {"measurement": "MIC", "setting": "[1]; Acinetobacter baumannii, KUB No. 5734, AR Bank #301", "result": 16, "unit": "µg/mL"}, {"measurement": "MIC", "setting": "[1]; Acinetobacter baumannii, KUB No. 5735, AR Bank #302", "result": "> 64", "unit": "µg/mL"}, {"measurement": "MIC", "setting": "[1]; Acinetobacter baumannii, KUB No. 5736, AR Bank #303", "result": 16, "unit": "µg/mL"}, {"measurement": "MIC", "setting": "[1]; Acinetobacter baumannii, KUB No. 5737, AR Bank #304", "result": 16, "unit": "µg/mL"}, {"measurement": "MIC", "setting": "[1]; Acinetobacter baumannii, KUB No. 5738, AR Bank #305", "result": 16, "unit": "µg/mL"}, {"measurement": "MIC", "setting": "[1]; Acinetobacter baumannii, KUB No. 5739, AR Bank #306", "result": 32, "unit": "µg/mL"}, {"measurement": "MIC", "setting": "[1]; Acinetobacter baumannii, KUB No. 5740, AR Bank #307", "result": 16, "unit": "µg/mL"}, {"measurement": "MIC", "setting": "[1]; Acinetobacter baumannii, KUB No. 5741, AR Bank #308", "result": 16, "unit": "µg/mL"}, {"measurement": "MIC", "setting": "[1]; Acinetobacter baumannii, KUB No. 5742, AR Bank #309", "result": 64, "unit": "µg/mL"}, {"measurement": "MIC", "setting": "[1]; Acinetobacter baumannii, KUB No. 5743, AR Bank #310", "result": 32, "unit": "µg/mL"}, {"measurement": "MIC", "setting": "[1]; Acinetobacter baumannii, KUB No. 5744, AR Bank #311", "result": 4, "unit": "µg/mL"}, {"measurement": "MIC", "setting": "[1]; Acinetobacter baumannii, KUB No. 5745, AR Bank #312", "result": 4, "unit": "µg/mL"}, {"measurement": "MIC", "setting": "[1]; Acinetobacter baumannii, KUB No. 5746, AR Bank #313", "result": 8, "unit": "µg/mL"}, {"measurement": "MIC50", "setting": "[1]; Acinetobacter baumannii, 55 isolates of A. baumannii, read-out: MIC50", "result": 16, "unit": "µg/mL"}, {"measurement": "MIC80", "setting": "[1]; Acinetobacter baumannii, 55 isolates of A. baumannii, read-out: MIC80", "result": 32, "unit": "µg/mL"}, {"measurement": "MIC90", "setting": "[1]; Acinetobacter baumannii, 55 isolates of A. baumannii, read-out: MIC90", "result": 64, "unit": "µg/mL"}, {"measurement": "Number of isolates at MIC 8 µg/mL", "setting": "[1]; [3]", "result": 3}, {"measurement": "Number of isolates at MIC 16 µg/mL", "setting": "[1]; [3]", "result": 1}, {"measurement": "MIC", "setting": "[2]; Citrobacter freundii, KUB No. 5654, AR Bank # 157", "result": "> 64", "unit": "µg/mL"}, {"measurement": "MIC", "setting": "[2]; Enterobacter cloacae, Enterobacter cloacae KUB No. 5792, AR Bank #448", "result": "> 64", "unit": "µg/mL"}, {"measurement": "MIC", "setting": "[2]; Enterobacter cloacae, Enterobacter cloacae KUB No. 5807, AR Bank #501", "result": 1, "unit": "µg/mL"}, {"measurement": "MIC", "setting": "[2]; Enterobacter cloacae, Enterobacter cloacae KUB No. 5808, AR Bank #502", "result": 8, "unit": "µg/mL"}, {"measurement": "MIC", "setting": "[2]; Enterobacter cloacae, Enterobacter cloacae complex, KUB No. 5661, AR Bank # 164", "result": 0.12, "unit": "µg/mL"}, {"measurement": "MIC", "setting": "[2]; Enterobacter cloacae, Enterobacter cloacae group, KUB No. 5629, AR Bank # 132", "result": 0.06, "unit": "µg/mL"}, {"measurement": "MIC", "setting": "[2]; Enterobacter cloacae, KUB No. 5529, AR Bank# 32", "result": 1, "unit": "µg/mL"}, {"measurement": "MIC", "setting": "[2]; Enterobacter cloacae, KUB No. 5535, AR Bank# 38", "result": 64, "unit": "µg/mL"}, {"measurement": "MIC", "setting": "[2]; Enterobacter cloacae, KUB No. 5547, AR Bank# 50", "result": 8, "unit": "µg/mL"}, {"measurement": "MIC", "setting": "[2]; Enterobacter cloacae, KUB No. 5550, AR Bank# 53", "result": 32, "unit": "µg/mL"}, {"measurement": "MIC", "setting": "[2]; Enterobacter cloacae, KUB No. 5557, AR Bank# 60", "result": 0.06, "unit": "µg/mL"}, {"measurement": "MIC", "setting": "[2]; Enterobacter cloacae, KUB No. 5660, AR Bank # 163", "result": 32, "unit": "µg/mL"}, {"measurement": "MIC", "setting": "[2]; Enterobacter cloacae, KUB No. 5761, AR Bank # 365", "result": 4, "unit": "µg/mL"}, {"measurement": "MIC", "setting": "[2]; Enterobacter cloacae, KUB No. 5762, AR Bank # 366", "result": 0.5, "unit": "µg/mL"}, {"measurement": "MIC", "setting": "[2]; Enterobacter cloacae, KUB No. 5763, AR Bank # 367", "result": 1, "unit": "µg/mL"}, {"measurement": "MIC", "setting": "[2]; Enterobacter cloacae, KUB No. 5778, AR Bank # 432", "result": 0.12, "unit": "µg/mL"}, {"measurement": "MIC", "setting": "[2]; Enterobacter cloaccae, KUB No. 5651, AR Bank # 154", "result": 1, "unit": "µg/mL"}, {"measurement": "MIC", "setting": "[2]; Enterobacter clooreae, KUB No. 5633, AR Bank # 136", "result": 16, "unit": "µg/mL"}, {"measurement": "MIC", "setting": "[2]; Escherichia coli, Escherichia coli KUB No. 5783, AR Bank #437", "result": 32, "unit": "µg/mL"}, {"measurement": "MIC", "setting": "[2]; Escherichia coli, Escherichia coli KUB No. 5794, AR Bank #450", "result": 0.12, "unit": "µg/mL"}, {"measurement": "MIC", "setting": "[2]; Escherichia coli, Escherichia coli KUB No. 5795, AR Bank #451", "result": 32, "unit": "µg/mL"}, {"measurement": "MIC", "setting": "[2]; Escherichia coli, Escherichia coli KUB No. 5796, AR Bank #452", "result": 64, "unit": "µg/mL"}, {"measurement": "MIC", "setting": "[2]; Escherichia coli, Escherichia coli KUB No. 5803, AR Bank #861", "result": 16, "unit": "µg/mL"}, {"measurement": "MIC", "setting": "[2]; Escherichia coli, KUB No. 5601, AR Bank # 104", "result": 16, "unit": "µg/mL"}, {"measurement": "MIC", "setting": "[2]; Escherichia coli, KUB No. 5611, AR Bank # 114", "result": 32, "unit": "µg/mL"}, {"measurement": "MIC", "setting": "[2]; Escherichia coli, KUB No. 5615, AR Bank # 118", "result": 32, "unit": "µg/mL"}, {"measurement": "MIC", "setting": "[2]; Escherichia coli, KUB No. 5616, AR Bank # 119", "result": 32, "unit": "µg/mL"}, {"measurement": "MIC", "setting": "[2]; Escherichia coli, KUB No. 5625, AR Bank # 128", "result": 32, "unit": "µg/mL"}, {"measurement": "MIC", "setting": "[2]; Escherichia coli, KUB No. 5634, AR Bank # 137", "result": 64, "unit": "µg/mL"}, {"measurement": "MIC", "setting": "[2]; Escherichia coli, KUB No. 5646, AR Bank # 149", "result": 8, "unit": "µg/mL"}, {"measurement": "MIC", "setting": "[2]; Escherichia coli, KUB No. 5647, AR Bank # 150", "result": 32, "unit": "µg/mL"}, {"measurement": "MIC", "setting": "[2]; Escherichia coli, KUB No. 5648, AR Bank # 151", "result": 32, "unit": "µg/mL"}, {"measurement": "MIC", "setting": "[2]; Escherichia coli, KUB No. 5659, AR Bank # 162", "result": 32, "unit": "µg/mL"}, {"measurement": "MIC", "setting": "[2]; Escherichia coli, KUB No. 5764, AR Bank # 368", "result": 0.06, "unit": "µg/mL"}, {"measurement": "MIC", "setting": "[2]; Escherichia coli, KUB No. 5765, AR Bank # 369", "result": 0.06, "unit": "µg/mL"}, {"measurement": "MIC", "setting": "[2]; Escherichia coli, KUB No. 5766, AR Bank # 370", "result": 16, "unit": "µg/mL"}, {"measurement": "MIC", "setting": "[2]; Escherichia coli, KUB No. 5767, AR Bank # 371", "result": 16, "unit": "µg/mL"}, {"measurement": "MIC", "setting": "[2]; Escherichia coli, KUB No. 5768, AR Bank # 372", "result": 16, "unit": "µg/mL"}, {"measurement": "MIC", "setting": "[2]; Escherichia coli, KUB No. 5769, AR Bank # 373", "result": 32, "unit": "µg/mL"}, {"measurement": "MIC", "setting": "[2]; Escherichia coli, KUB No. 5770, AR Bank # 374", "result": 32, "unit": "µg/mL"}, {"measurement": "MIC", "setting": "[2]; Escherichia coli, KUB No. 5774, AR Bank # 378", "result": 8, "unit": "µg/mL"}, {"measurement": "MIC", "setting": "[2]; Escherichia coli, KUB No. 5779, AR Bank # 433", "result": 32, "unit": "µg/mL"}, {"measurement": "MIC", "setting": "[2]; Escherichia coli, KUB No. 5780, AR Bank # 434", "result": 16, "unit": "µg/mL"}, {"measurement": "MIC", "setting": "[2]; Escherichia coli, KUB No. 5781, AR Bank # 435", "result": 32, "unit": "µg/mL"}, {"measurement": "MIC", "setting": "[2]; Escherichia, KUB No. 57, AR Bank # 436 (row cut off)", "result": 32, "unit": "µg/mL"}]}
